Measured values taken from PMC8346516 (Nature Communications, 2021).

Target: T1, Lsm12 (Homo sapiens, UniProt Q3MHD2)
T1 construct: hLsm12-HisE.coli: 6×His-tagged human Lsm12 (195 residues in full length) purified from E. coli
Assay: competition […]-NAADP radioligand binding with purified protein; also competition pull-down with immobilized NAADP (Kd […])

T1 sequence (Q3MHD2 whole entry): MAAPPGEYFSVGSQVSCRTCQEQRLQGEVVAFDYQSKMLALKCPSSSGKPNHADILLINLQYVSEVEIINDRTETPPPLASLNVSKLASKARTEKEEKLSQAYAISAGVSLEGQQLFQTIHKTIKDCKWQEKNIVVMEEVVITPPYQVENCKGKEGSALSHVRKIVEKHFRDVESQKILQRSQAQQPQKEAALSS

Kd: ~20 nM
Structure (SMILES): Nc1ncnc2c1ncn2[C@@H]1O[C@H](COP(=O)(O)OP(=O)(O)OC[C@H]2O[C@@H]([n+]3cccc(C(=O)[O-])c3)[C@H](O)[C@@H]2O)[C@@H](O)[C@H]1OP(=O)(O)O [NAADP]
